Structures are written as SMILES.

From patent US20250171404A1, “PCNA INHIBITORS AND USES THEREOF” (CITY OF HOPE, priority 2022, published 2025) come the findings set out here.

One series addresses T1, PCNA (Homo sapiens, UniProt P12004).
T1 construct: made in house; host or cells: E. coli Rosetta 2 (DE3)
Kind of series: Thermal denaturation (thermal shift) assay. Type of series: binding. The note with it: 9 μM PCNA; 10 or 30 μM compound; dose dependent. The method, then: FIGS. 1A-1E. AOH1160 analog interactions with PCNA. FIG. 1A: Thermal shift assay: Normalized inverse derivative thermal denaturation plots of 9 μM apo-PCNA with DMSO control is depicted with a black dashed line and PCNA in the presence of 10 μM AOH1160LE is shown in light grey and 30 μM AOH1160LE in dark grey. ΔTm values are provided. FIG. 1B: As described in FIG. 1A, in the presence of 10 μM AOH1996 depicted in light grey and 30 μM AOH1996 depicted in dark grey. FIG. 1C: Four monomers (chains A-D) of PCNA are present in the asymmetric unit of the crystal. Chains A, B, and C form the homotrimer biological unit, while chain Dis orientated perpendicular to the plane of the ring, below the interface of chains B and C and it belongs to an adjacent ring. Inset: Three molecules of AOH1160LE bind in and adjacent to the PIP box cavity of each of the PCNA ring subunits. The omit map, gray mesh, is contoured to 1.56. Two PCNA monomer subunits from adjacent rings stack against each other, placing the PIP box and IDCLs of each subunit in opposing directions. FIG. 1D: The three AOH1160LE molecules are shown as stick figure representations. Two of the compounds, left and central, bind into the PIP box cavity at known PCNA-partner/compound interaction sites. […] The electrostatic surface maps are depicted with Poisson-Boltzmann electrostatic surface potentials shown in dark grey and light grey, corresponding to −10 to +10 kT/e respectively.
Targeting the PIP box and APIM binding domain of PCNA. AOH1160, a small molecule PCNA ligand, targets the cancer-distinct L126-Y133 region of PCNA (Malkas et al., 2006) and is selectively toxic to cancer cells (Gu et al., 2018). […]
Thermal denaturation assay for PCNA-AOH1996 interaction. […] Fluorescence intensity was measured within the excitation/emission ranges 470-505/540-700 nm.

The subject of series [1] is nonmalignant cells, including human PBMCs, small airway epithelial cells (hSEAC), and neural crest stem cells (7SM0032). Kind of series: Toxicity to nonmalignant cells.
Series [2] is described as follows: Oral pharmacokinetic study in dogs. Type of series: in vivo, beagle dogs. The method, then:
FIGS. 4A-4H. Pharmacokinetics and anti-tumor growth activity of AOH1996 in vivo. FIG. 4A: After oral administration, the plasma concentrations of AOH1996 from three male and three female ES1^e/SCID mice at the indicated time points were averaged and graphed ±S.D. The inset contains PK parameters determined by a standard noncompartmental method. FIG. 4B: A similar PK study of AOH1996 was performed in dogs. FIGS. 4C-4E: Mice bearing the xenograft tumors of neuroblastoma (FIG. 4C: SK-N-BE(2)c), breast cancer (FIG. 4D: MDA-MB-468), and small-cell lung cancer (FIG. 4E: H82) were given vehicle only (black) or 40 mg/kg of AOH1996 (grey) twice daily immediately after the first measurement. Tumor sizes were measured by a dial caliper each week. […] FIG. 4F: Animal body weight was monitored throughout the studies as an indicator of toxicity. […] FIG. 4G: The levels of phosphor-Chk1 (pChk1) and γH2A.X in SK-N-BE(2)c derived tumor samples were analyzed by IHC. […] The p values determined by the Log-rank (Mantel-Cox) test between combination treatment and each of the control groups are p=0.0003 (Combination vs. NoRx), p=0.005 (Combination vs. AOH1996 alone), and p=0.024 (Combination vs. CPT-11 alone).
Pharmacokinetic (PK) study in animals. […] Following removal of blood cells, plasma concentration of AOH1996 was determined by LC-MS/MS as described (Gu et al., 2018). […]

T1 sequence (P12004 whole entry): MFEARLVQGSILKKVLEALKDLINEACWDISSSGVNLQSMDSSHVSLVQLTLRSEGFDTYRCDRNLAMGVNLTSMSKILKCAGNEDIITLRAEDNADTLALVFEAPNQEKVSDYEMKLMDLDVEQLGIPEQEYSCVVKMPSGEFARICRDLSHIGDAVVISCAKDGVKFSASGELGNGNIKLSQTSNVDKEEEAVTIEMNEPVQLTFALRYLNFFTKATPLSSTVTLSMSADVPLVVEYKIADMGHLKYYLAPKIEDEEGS

As for `COc1cccc(Oc2ccccc2NC(=O)CNC(=O)c2cccc3ccccc23)c1` [AOH1996, N-(2-((2-(3-methoxyphenoxy)phenyl)amino)-2-oxoethyl)-1-naphthamide], the “shift of protein melting curves (ΔTm)” value on PCNA was not above 1.5 °C. Besides, in series [1], the “difference in sensitivity between cancer and normal cells” value is reported as 30 fold. For the same compound, the “concentration up to which not significantly toxic” value in series [1] (human PBMCs, hSEAC, 7SM0032) was “at least 10 μM”. Further, the “PK parameters in dogs” value in series [2] is recorded as “Comparable PK parameters”.
